For orientation: IC50 means the midpoint of a concentration-inhibition curve.

This assay addresses Src Kinase (p60^C-Src) (Homo sapiens, UniProt P12931). Briefly: Src kinase DELFIA time-resolved fluorometric assay. The assay is classed as biochemical. To be noted: Src kinase inhibitory activity; 100 μM ATP, poly(Glu, Tyr) 4:1 substrate, 15 min at room temp.; read-out: Activity (μMol, Delfia assay. IC50). Here is the method: The compounds 1-25 above were assayed for activity with respect to the Src protein tyrosine kinase by the fluorometric method described in Measurement of the Protein Tyrosine Kinase Activity of c-Src Using Time-Resolved Fluorometry of Europium Chelates, Braunwalder, A.F. et al., Analytical Biochemistry 238, 159-164 (1996), the disclosure of which is incorporated herein by reference, using the materials and procedures further specified below.
General Assay Method for Src-Kinase:
• Costar 384 Clear, non-treated, high-binding plates • Sigma poly(Glu, Tyr) 4:1, ave. MW 35,000 • Src Kinase (p60^C-Src) • Sigma ATP (1.5 mM Stock Soln. in H2O) • MES Buffer: 30 mM MES (pH 6.8) • 10 mM MgCl2 • MBI Buffer: (MES+0.4 mg/ml BSA+0.003% IGEPAL) • Wallac Eu-labelled anti-phosphotyrosine Antibody (CR04-100) • Coating Solution: • 22.5 mM Na2CO3 (pH 9.6) • 27.5 mM NaHCO3 • 0.9% NaCl • Antibody Dilution Buffer: (MES+3% BSA) • DELFIA® Wash Solution (TTBS): • 0.5 M NaCl • 20 mM Tris (pH7.4) • 0.15% Tween 20 • DELFIA Enhancement Solution Method:
The plates were coated with 0.1 mg/ml poly(Glu, Tyr) in Coating Solution, 35 μl/well. […]
The reaction was stopped by aspiration, and then washed 3 times with MES (100 μl/wash). […] 20 μl DELFIA enhancement solution was added and the plates were read on a Wallac Victor plate reader in time-resolved fluorescence mode using 340 nm excitation and 615 nm emission wavelengths.

As for “[4-(Piperidin-4-yl)carbonyl-1-[[2-(4-phenylbutanoyl) amino]-4-[(1-aminocarbonyl-2-(naphth-2-yl))ethylamino]-carbonylaminophenyl]homopiperazine [Example 21]”, the IC50 turned out to be 22 µM.

The values above are taken from patent US7323457B2, “Substituted sulfonamides and ureas useful for inhibiting kinase activity” (Aventis Pharmaceuticals Inc., priority 2001, dated 2008).
